Assay results taken from publication PMC9299836 (eLife, 2022).

Columns and labels:
mGluR2 [1] = target: T1, mGluR2 (Mus musculus, UniProt Q14BI2, A548F); experiment: Single-molecule FRET (SiMPull) of azi-CRD: population histograms and state occupancy; details: azi-CRD, 10 μM modulator, fraction of total area;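 also: Cy3/Cy5-labelled receptor from HEK293T cell lysate captured on anti-FLAG surfaces, apparent FRET efficiency computed from donor and acceptor intensities with crosstalk correction, pooled into population histograms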
T1 sequence (Q14BI2 19-872 A548F): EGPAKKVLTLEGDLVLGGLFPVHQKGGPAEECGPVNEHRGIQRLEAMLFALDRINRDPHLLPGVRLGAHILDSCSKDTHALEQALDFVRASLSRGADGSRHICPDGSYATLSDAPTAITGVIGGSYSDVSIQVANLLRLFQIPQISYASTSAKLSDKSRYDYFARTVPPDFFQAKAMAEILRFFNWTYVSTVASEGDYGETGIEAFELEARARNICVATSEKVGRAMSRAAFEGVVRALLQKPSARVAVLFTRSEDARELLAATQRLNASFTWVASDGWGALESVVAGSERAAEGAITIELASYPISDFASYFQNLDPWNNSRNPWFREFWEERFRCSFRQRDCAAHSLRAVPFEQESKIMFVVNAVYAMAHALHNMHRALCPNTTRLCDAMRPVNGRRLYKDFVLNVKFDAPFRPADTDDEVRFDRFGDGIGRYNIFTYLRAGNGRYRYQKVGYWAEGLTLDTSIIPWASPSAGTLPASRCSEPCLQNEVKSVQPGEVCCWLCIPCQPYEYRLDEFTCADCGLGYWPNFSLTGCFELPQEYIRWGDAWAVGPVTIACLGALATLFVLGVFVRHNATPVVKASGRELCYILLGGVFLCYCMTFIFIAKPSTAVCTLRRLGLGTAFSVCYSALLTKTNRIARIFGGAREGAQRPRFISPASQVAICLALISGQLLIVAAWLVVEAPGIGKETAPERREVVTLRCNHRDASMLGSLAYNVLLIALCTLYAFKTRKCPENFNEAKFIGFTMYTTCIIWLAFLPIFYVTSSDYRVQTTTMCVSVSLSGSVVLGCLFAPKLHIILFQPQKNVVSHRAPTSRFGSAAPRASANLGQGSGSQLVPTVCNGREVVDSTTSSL

mGluR2 [2] = target: T1, mGluR2; experiment: smFRET of azi-CRD: cross-correlation of donor and acceptor intensities (CRD dynamics) and HMM transition density plots; details: 0μM Glutamate + GPT/Pyruvate + 10μM BINA, N 3;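 also: single detergent-solubilized receptors captured on antibody-coated flow cells via C-terminal FLAG-tag, imaged by smFRET, donor and acceptor intensity traces from three independent biological replicates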

- Mean occupancy, state 1 (inactive, FRET 0.24) (mGluR2 [1]; 0 μM glutamate): 0.3053
- Mean occupancy, state 2 (intermediate 1, FRET 0.38) (mGluR2 [1]; 0 μM glutamate): 0.5199
- Mean occupancy, state 3 (intermediate 2, FRET 0.70) (mGluR2 [1]; 0 μM glutamate): 0.1483
- Mean occupancy, state 4 (active, FRET 0.87) (mGluR2 [1]; 0 μM glutamate): 0.02653
- Mean occupancy, state 1 (inactive, FRET 0.24) (mGluR2 [1]; 1000 μM glutamate): 0.00296
- Mean occupancy, state 2 (intermediate 1, FRET 0.38) (mGluR2 [1]; 1000 μM glutamate): 0.03751
- Mean occupancy, state 3 (intermediate 2, FRET 0.70) (mGluR2 [1]; 1000 μM glutamate): 0.2179
- Mean occupancy, state 4 (active, FRET 0.87) (mGluR2 [1]; 1000 μM glutamate): 0.7416
- Cross Correlation, Mean (mGluR2 [2]; Time 0 s): -0.309
- Cross Correlation, Mean (mGluR2 [2]; Time 0.05 s): -0.1732
- Cross Correlation, Mean (mGluR2 [2]; Time 0.1 s): -0.1405
- Cross Correlation, Mean (mGluR2 [2]; Time 0.15 s): -0.1268
- Cross Correlation, Mean (mGluR2 [2]; Time 0.2 s): -0.1138
- Cross Correlation, Mean (mGluR2 [2]; Time 0.25 s): -0.1079
- Cross Correlation, Mean (mGluR2 [2]; Time 0.3 s): -0.1007
- Cross Correlation, Mean (mGluR2 [2]; Time 0.35 s): -0.09667
- Cross Correlation, Mean (mGluR2 [2]; Time 0.4 s): -0.08889
- Cross Correlation, Mean (mGluR2 [2]; Time 0.45 s): -0.08933
- Cross Correlation, Mean (mGluR2 [2]; Time 0.5 s): -0.08286
- Cross Correlation, Mean (mGluR2 [2]; Time 0.55 s): -0.07956
- Cross Correlation, Mean (mGluR2 [2]; Time 0.6 s): -0.07731
- Cross Correlation, Mean (mGluR2 [2]; Time 0.65 s): -0.07407
- Cross Correlation, Mean (mGluR2 [2]; Time 0.7 s): -0.07365
- Cross Correlation, Mean (mGluR2 [2]; Time 0.75 s): -0.06697
- Cross Correlation, Mean (mGluR2 [2]; Time 0.8 s): -0.06199
- Cross Correlation, Mean (mGluR2 [2]; Time 0.85 s): -0.06042
- Cross Correlation, Mean (mGluR2 [2]; Time 0.9 s): -0.05216
- Cross Correlation, Mean (mGluR2 [2]; Time 0.95 s): -0.05689
- Cross Correlation, Mean (mGluR2 [2]; Time 1 s): -0.0539
- Cross Correlation, Mean (mGluR2 [2]; Time 1.05 s): -0.05356
- Cross Correlation, Mean (mGluR2 [2]; Time 1.1 s): -0.0518
- Cross Correlation, Mean (mGluR2 [2]; Time 1.15 s): -0.0477
- Cross Correlation, Mean (mGluR2 [2]; Time 1.2 s): -0.04715
- Cross Correlation, Mean (mGluR2 [2]; Time 1.25 s): -0.04267
- Cross Correlation, Mean (mGluR2 [2]; Time 1.3 s): -0.04926
- Cross Correlation, Mean (mGluR2 [2]; Time 1.35 s): -0.04133
- Cross Correlation, Mean (mGluR2 [2]; Time 1.4 s): -0.03906
- Cross Correlation, Mean (mGluR2 [2]; Time 1.45 s): -0.0385
- Cross Correlation, Mean (mGluR2 [2]; Time 1.5 s): -0.035
- Cross Correlation, Mean (mGluR2 [2]; Time 1.55 s): -0.03506
- Cross Correlation, Mean (mGluR2 [2]; Time 1.6 s): -0.03291
- Cross Correlation, Mean (mGluR2 [2]; Time 1.65 s): -0.03291
- Cross Correlation, Mean (mGluR2 [2]; Time 1.7 s): -0.03331
- Cross Correlation, Mean (mGluR2 [2]; Time 1.75 s): -0.03095
- Cross Correlation, Mean (mGluR2 [2]; Time 1.8 s): -0.02869
- Cross Correlation, Mean (mGluR2 [2]; Time 1.85 s): -0.03476
- Cross Correlation, Mean (mGluR2 [2]; Time 1.9 s): -0.02485
- Cross Correlation, Mean (mGluR2 [2]; Time 1.95 s): -0.02573
- Cross Correlation, Mean (mGluR2 [2]; Time 2 s): -0.0316
- Cross Correlation, Mean (mGluR2 [2]; Time 2.05 s): -0.03349
- Cross Correlation, Mean (mGluR2 [2]; Time 2.1 s): -0.02361
- Cross Correlation, Mean (mGluR2 [2]; Time 2.15 s): -0.02192
- Cross Correlation, Mean (mGluR2 [2]; Time 2.2 s): -0.02164
- Cross Correlation, Mean (mGluR2 [2]; Time 2.25 s): -0.01683
Structure (SMILES): Cc1c(OCc2cccc(-c3ccc(C(=O)O)cc3)c2)cc2c(c1C)C(=O)C(C1CCCC1)C2 (stereo not drawn) [BINA]
